Where two headings read alike, the source gives them in different places.
Experiments:
E. cloacae = experiment: Initial MIC, microbroth dilution (CLSI), avibactam 4 mg/L; format: cell-based
Description: (§1) All MIC determinations including those performed in the checkerboard assay were done in cation-adjusted Mueller-Hinton broth (purchased from Becton Dickinson, Oxford UK). […]

E. coli = experiment: as above; format: cell-based
Description: as §1

E. faecalis = experiment: as above; format: cell-based; conditions: Enterococcus faecalis
Description: as §1

S. aureus [1] = experiment: as above; format: cell-based
Description: as §1

K. pneumoniae = experiment: as above; format: cell-based
Method: (§2) All MIC determinations including those performed in the checkerboard assay were done in cation-adjusted Mueller-Hinton broth (purchased from Becton Dickinson, Oxford UK).
(§3) Initial MIC data were determined by microbroth dilution methods as recommended by CLSI (2012b). Checkerboards were made in accordance with the method given by Pillai et. al., ? Antimicrobial Combinations in Antibiotics, LABORATORY MEDICINE (Lorian Ed., 3rd Ed. (2003)) p. 365-440 as per standard microbroth dilution tests but with agents in combination. […] A final avibactam concentration of 4 mg/L was used throughout the study. Antibacterial agents were combined into microtitre plates using the Evolution III liquid handling system.

P. aeruginosa = experiment: as above; format: cell-based
Method: as §2, §3

S. aureus [2] = experiment: MIC, CLSI broth microdilution in CAMHB with 0-10% pulmonary surfactant (avibactam fixed at 4 μg/mL in combination); format: cell-based, Staphylococcus aureus; conditions: for MIC: Staphylococcus aureus, read-out: MIC
Method: The bacterial strains used in this testing were part of the microbiological culture collection housed at AstraZeneca R&D Boston (AstraZeneca Research Collection, designated ARC). The panel of bacterial isolates used for this testing was comprised of five CLSI QC reference strains and the remainder were either recent clinical isolates expressing β-lactamases or isolates from the primary bacterial screening panels.
MIC values were determined using the CLSI broth microdilution methodology with slight variation. Stock compound mother plates were prepared and used to spot 2 μL aliquots of serial 2-fold drug dilutions to columns 1-11 of 96-well daughter plates using a Perkin-Elmer MiniTrak™ MultiPosition dispenser. […] An inoculum volume of 100 μL (5×10E^5 CFU/mL) in CAMHB containing 0, 1, 2.5, 5, or 10% pulmonary surfactant was added using a multichannel Finnpipette® to each well of the 96-well plate.
The minimum inhibitory concentration (MIC) values against each organism/drug combination were determined using broth microdilution methodology according to CLSI guidelines. The recommended reference bacterial strains for each test group and reference compounds were incorporated into each test. For Gram-negatives, the reference bacterial strains were Escherichia coli ATCC 25922, E. coli ATCC 35218, Klebsiella pneumoniae ATCC 700603, and Pseudomonas aeruginosa ATCC 27853. Staphylococcus aureus ATCC 29213 was the reference bacterial strain for the Gram-positives.
MIC values for individual isolates were read visually. The MICs for each compound or combination in pulmonary surfactant was compared to the compound or combination tested in CAMHB alone.

NC[C@H]1O[C@H](O[C@H]2[C@H](O)[C@@H](O[C@H]3O[C@H](CO)[C@@H](O)[C@H](N)[C@H]3O)[C@H](N)C[C@@H]2N)[C@H](N)C[C@@H]1O [Tobramycin]
8 µg/mL: MIC (E. faecalis; isolate 27 E. faecalis Basal MICs, read-out: MIC) | MIC (K. pneumoniae; Klebsiella pneumoniae, isolate 14 K. pneumoniae KPC-3, read-out: MIC) | MIC (P. aeruginosa; Pseudomonas aeruginosa, isolate 21 P. aeruginosa KPC-2, read-out: MIC)
4 µg/mL: MIC (K. pneumoniae; Klebsiella pneumoniae, isolate 10 K. pneumoniae TEM-4, read-out: MIC)
16 µg/mL: MIC (E. faecalis; isolate 25 E. faecalis Basal MICs, read-out: MIC) | MIC (E. faecalis; isolate 26 E. faecalis Basal MICs, read-out: MIC)
1 µg/mL: MIC (E. coli; Escherichia coli, isolate 6 E. coli TEM-4, read-out: MIC) | MIC (E. coli; Escherichia coli, isolate 7 E. coli SHV-12, read-out: MIC) | MIC (P. aeruginosa; Pseudomonas aeruginosa, isolate 19 P. aeruginosa PER, read-out: MIC)
64 µg/mL: MIC (E. coli; Escherichia coli, isolate 5 E. coli CTX-M-15, read-out: MIC) | MIC (E. coli; Escherichia coli, isolate 8 E. coli SHV-2, read-out: MIC)
0.5 µg/mL: MIC (E. coli; Escherichia coli, isolate 4 E. coli Basal MICs, read-out: MIC) | MIC (S. aureus [1]; Staphylococcus aureus, isolate 23 S. aureus Basal MICs, Penicillinase+, read-out: MIC) | MIC (P. aeruginosa; Pseudomonas aeruginosa, isolate 17 P. aeruginosa Derepressed AmpC, read-out: MIC) | MIC (P. aeruginosa; Pseudomonas aeruginosa, isolate 18 P. aeruginosa Derepressed AmpC, read-out: MIC)
0.12 µg/mL: MIC (K. pneumoniae; Klebsiella pneumoniae, isolate 15 K. pneumoniae KPC-2, read-out: MIC)
0.25 µg/mL: MIC (E. cloacae; Enterobacter cloacae, isolate 1 E. cloacae Basal MICs, read-out: MIC) | MIC (E. cloacae; Enterobacter cloacae, isolate 2 E. cloacae Derepressed AmpC, read-out: MIC) | MIC (E. cloacae; Enterobacter cloacae, isolate 3 E. cloacae Derepressed AmpC, read-out: MIC) | MIC (S. aureus [1]; Staphylococcus aureus, isolate 22 S. aureus Basal MICs, read-out: MIC) | MIC (S. aureus [1]; Staphylococcus aureus, isolate 24 S. aureus Basal MICs, Penicillinase+, read-out: MIC) | MIC (K. pneumoniae; Klebsiella pneumoniae, isolate 9 K. pneumoniae Basal MICs, read-out: MIC) | MIC (K. pneumoniae; Klebsiella pneumoniae, isolate 11 K. pneumoniae CTX-M-15, read-out: MIC) | MIC (K. pneumoniae; Klebsiella pneumoniae, isolate 12 K. pneumoniae SHV-12, read-out: MIC) | MIC (K. pneumoniae; Klebsiella pneumoniae, isolate 13 K. pneumoniae KPC-3, read-out: MIC) | MIC (P. aeruginosa; Pseudomonas aeruginosa, isolate 16 P. aeruginosa Basal MICs, read-out: MIC)
256 µg/mL: MIC (P. aeruginosa; Pseudomonas aeruginosa, isolate 20 P. aeruginosa KPC-2, read-out: MIC)

CN[C@H](CC(C)C)C(=O)N[C@H]1C(=O)N[C@@H](CC(N)=O)C(=O)N[C@H]2C(=O)N[C@H]3C(=O)N[C@H](C(=O)N[C@H](C(=O)O)c4cc(O)cc(O)c4-c4cc3ccc4O)[C@H](O)c3ccc(c(Cl)c3)Oc3cc2cc(c3O[C@@H]2O[C@H](CO)[C@@H](O)[C@H](O)[C@H]2O[C@H]2C[C@](C)(N)[C@H](O)[C@H](C)O2)Oc2ccc(cc2Cl)[C@H]1O [Vancomycin]
2 µg/mL: MIC (E. faecalis; isolate 26 E. faecalis Basal MICs) | MIC (E. faecalis; isolate 27 E. faecalis Basal MICs)
1 µg/mL: MIC (E. faecalis; isolate 25 E. faecalis Basal MICs) | MIC (S. aureus [1]; Staphylococcus aureus) | MIC (S. aureus [1]; isolate 23 S. aureus Basal MICs, Penicillinase+) | MIC (S. aureus [1]; isolate 24 S. aureus Basal MICs, Penicillinase+)

CCCCCCCCCC(=O)N[C@@H](Cc1c[nH]c2ccccc12)C(=O)N[C@H](CC(N)=O)C(=O)N[C@@H](CC(=O)O)C(=O)N[C@@H]1C(=O)NCC(=O)N[C@@H](CCCN)C(=O)N[C@@H](CC(=O)O)C(=O)N[C@H](C)C(=O)N[C@@H](CC(=O)O)C(=O)NCC(=O)N[C@H](CO)C(=O)N[C@@H]([C@H](C)CC(=O)O)C(=O)N[C@@H](CC(=O)c2ccccc2N)C(=O)O[C@@H]1C [daptomycin]
16 µg/mL: MIC (S. aureus [2]; ATCC29213, S. aureus ARC12 (CLSI QC strain, ATCC 29213), surfactant 1%) | MIC (S. aureus [2]; MRSA, S. aureus ARC516 (MRSA, quinolone-resistant), surfactant 1%)
0.5 µg/mL: MIC (S. aureus [2]; ATCC29213, S. aureus ARC12 (CLSI QC strain, ATCC 29213), surfactant 0%) | MIC (S. aureus [2]; MRSA, S. aureus ARC516 (MRSA, quinolone-resistant), surfactant 0%)
32 fold: MIC increase in pulmonary surfactant (S. aureus [2]; S. aureus, 1% pulmonary surfactant)
> 64 µg/mL: MIC (S. aureus [2]; ATCC29213, S. aureus ARC12 (CLSI QC strain, ATCC 29213), surfactant 5%) | MIC (S. aureus [2]; MRSA, S. aureus ARC516 (MRSA, quinolone-resistant), surfactant 5%) | MIC (S. aureus [2]; MRSA, S. aureus ARC516 (MRSA, quinolone-resistant), surfactant 10%)
64 µg/mL: MIC (S. aureus [2]; ATCC29213, S. aureus ARC12 (CLSI QC strain, ATCC 29213), surfactant 2.5%) | MIC (S. aureus [2]; ATCC29213, S. aureus ARC12 (CLSI QC strain, ATCC 29213), surfactant 10%) | MIC (S. aureus [2]; MRSA, S. aureus ARC516 (MRSA, quinolone-resistant), surfactant 2.5%)

Colistin
2 µg/mL: MIC (P. aeruginosa; isolate 21 P. aeruginosa KPC-2)
1 µg/mL: MIC (P. aeruginosa; isolate 16 P. aeruginosa Basal MICs) | MIC (P. aeruginosa; isolate 18 P. aeruginosa Derepressed AmpC) | MIC (P. aeruginosa; isolate 19 P. aeruginosa PER) | MIC (P. aeruginosa; isolate 20 P. aeruginosa KPC-2)
0.25 µg/mL: MIC (E. cloacae; isolate 1 E. cloacae Basal MICs) | MIC (E. cloacae; isolate 2 E. cloacae Derepressed AmpC) | MIC (E. cloacae; isolate 3 E. cloacae Derepressed AmpC) | MIC (E. coli; isolate 4 E. coli Basal MICs) | MIC (E. coli; isolate 6 E. coli TEM-4) | MIC (E. coli; isolate 8 E. coli SHV-2) | MIC (K. pneumoniae; isolate 9 K. pneumoniae Basal MICs) | MIC (K. pneumoniae; isolate 11 K. pneumoniae CTX-M-15) | MIC (K. pneumoniae; isolate 12 K. pneumoniae SHV-12) | MIC (K. pneumoniae; isolate 13 K. pneumoniae KPC-3) | MIC (K. pneumoniae; isolate 14 K. pneumoniae KPC-3) | MIC (K. pneumoniae; isolate 15 K. pneumoniae KPC-2)
0.5 µg/mL: MIC (E. coli; isolate 5 E. coli CTX-M-15) | MIC (E. coli; isolate 7 E. coli SHV-12) | MIC (K. pneumoniae; isolate 10 K. pneumoniae TEM-4) | MIC (P. aeruginosa; isolate 17 P. aeruginosa Derepressed AmpC)

Source: US20150374673A1, “Combination Therapy for the Treatment of Nosocomial Pneumonia” (priority 2013, published 2015)
